Source: PubChem BioAssay AID2060623 (Molecular Pharmacology Branch, DTP, NCI, 2025)

System: 227483-062-R1-J1-PDC complex spheroids with HUVEC/MSC, viability
Test: Anticancer human tumor 227483-062-R1-J1-PDC patient-derived pancreatic carcinoma cell line growth inhibition [CLK]
Settings: for IC50: curve of first compound; for viability, T/C: stronger effect = lower value; active = viability on the fitted dose curve at most 10% of control; inactive = the rest
Method in brief: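 Multi-cell-type spheroids combined patient-derived tumor cells with HUVEC endothelial cells and human mesenchymal stem cells. Paired agents were dosed in half-log steps down from about clinical Cmax, or from 10 microM where Cmax was unknown.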

[1] = second compound 0.0316 µM, first compound 0.0316 µM
[2] = second compound 0.0316 µM, first compound 0.1 µM
[3] = second compound 0.0316 µM, first compound 0.316 µM
[4] = second compound 0.0316 µM, first compound 1 µM
[5] = second compound 0.0316 µM, first compound 3.16 µM
[6] = second compound 0.0316 µM, first compound 10 µM
[7] = second compound 0.1 µM, first compound 0.0316 µM
[8] = second compound 0.1 µM, first compound 0.1 µM
[9] = second compound 0.1 µM, first compound 0.316 µM
[10] = second compound 0.1 µM, first compound 1 µM
[11] = second compound 0.1 µM, first compound 3.16 µM
[12] = second compound 0.1 µM, first compound 10 µM
[13] = second compound 0.316 µM, first compound 0.0316 µM
[14] = second compound 0.316 µM, first compound 0.1 µM
[15] = second compound 0.316 µM, first compound 0.316 µM
[16] = second compound 0.316 µM, first compound 1 µM
[17] = second compound 0.316 µM, first compound 3.16 µM
[18] = second compound 0.316 µM, first compound 10 µM
[19] = second compound 1 µM, first compound 0.0316 µM
[20] = second compound 1 µM, first compound 0.1 µM
[21] = second compound 1 µM, first compound 0.316 µM
[22] = second compound 1 µM, first compound 1 µM
[23] = second compound 1 µM, first compound 3.16 µM
[24] = second compound 1 µM, first compound 10 µM
[25] = second compound 3.16 µM, first compound 0.0316 µM
[26] = second compound 3.16 µM, first compound 0.1 µM
[27] = second compound 3.16 µM, first compound 0.316 µM
[28] = second compound 3.16 µM, first compound 1 µM
[29] = second compound 3.16 µM, first compound 3.16 µM
[30] = second compound 3.16 µM, first compound 10 µM
[31] = second compound 10 µM, first compound 0.0316 µM
[32] = second compound 10 µM, first compound 0.1 µM
[33] = second compound 10 µM, first compound 0.316 µM
[34] = second compound 10 µM, first compound 1 µM
[35] = second compound 10 µM, first compound 3.16 µM
[36] = second compound 10 µM, first compound 10 µM
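Also: spheroids exposed to compounds for seven days before readout.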
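For viability, T/C in this document: percent of DMSO vehicle control luminescence as 100% viability.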

COc1ccc([C@@H](O)c2cc(-c3ncnc4cc(N5CCOCC5)ccc34)c(F)cc2Cl)nn1 + CN1CCN(c2cc(C(=O)Nc3cc4cc(-c5cnn(C)c5)ccc4cn3)ccn2)CC1
active: viability, T/C [13] 5.56% | viability, T/C [14] 4.19% | viability, T/C [15] 4.12% | viability, T/C [16] 4.66% | viability, T/C [17] 5.44% | viability, T/C [18] 3.88% | viability, T/C [19] 1.55% | viability, T/C [20] 3.72% | viability, T/C [21] 3.44% | viability, T/C [22] 2.14% | viability, T/C [23] 2.19% | viability, T/C [24] 1.68% | viability, T/C [25] 5.54% | viability, T/C [26] 3.34% | viability, T/C [27] 3.99% | viability, T/C [28] 3.31% | viability, T/C [29] 3.4% | viability, T/C [30] 2.14% | viability, T/C [31] 2.64% | viability, T/C [32] 1.93% | viability, T/C [33] 2.01% | viability, T/C [34] 1.95% | viability, T/C [35] 1.9% | viability, T/C [36] 1.68%
< 0.0316 µM: IC50 (second compound 0.316 µM) | IC50 (second compound 1 µM) | IC50 (second compound 3.16 µM) | IC50 (second compound 10 µM)
inactive: viability, T/C [1] 95.2% | viability, T/C [2] 107% | viability, T/C [3] 115% | viability, T/C [4] 99% | viability, T/C [5] 75.7% | viability, T/C [6] 66.6% | viability, T/C [7] 60.8% | viability, T/C [8] 69.8% | viability, T/C [9] 54.1% | viability, T/C [10] 73.5% | viability, T/C [11] 66.2% | viability, T/C [12] 48.8%
> 10 µM: IC50 (second compound 0.0316 µM) | IC50 (second compound 0.1 µM)

C=CC(=O)N1CCN(c2nc(=O)n(-c3c(C)ccnc3C(C)C)c3nc(-c4c(O)cccc4F)c(F)cc23)C(C)C1 (stereo not drawn) + CNC(=O)c1ccc(Nc2nc(OC3CCCC3)c3c(-c4ccc5nc(C)oc5c4)c[nH]c3n2)c(OC)c1
< 0.0316 µM: IC50 (second compound 10 µM)
1.7 µM: IC50 (second compound 3.16 µM)
inactive: viability, T/C [1] 107% | viability, T/C [2] 92% | viability, T/C [3] 135% | viability, T/C [4] 103% | viability, T/C [5] 104% | viability, T/C [6] 108% | viability, T/C [7] 110% | viability, T/C [8] 101% | viability, T/C [9] 111% | viability, T/C [10] 118% | viability, T/C [11] 121% | viability, T/C [12] 107% | viability, T/C [13] 111% | viability, T/C [14] 87.9% | viability, T/C [15] 108% | viability, T/C [16] 104% | viability, T/C [17] 124% | viability, T/C [18] 98.6% | viability, T/C [19] 70.3% | viability, T/C [20] 57.6% | viability, T/C [21] 57.9% | viability, T/C [22] 63.5% | viability, T/C [23] 65.8% | viability, T/C [24] 52.3% | viability, T/C [25] 45.4% | viability, T/C [26] 63.2% | viability, T/C [27] 50.2% | viability, T/C [28] 51.6% | viability, T/C [29] 47.9% | viability, T/C [30] 26.6% | viability, T/C [31] 37.7% | viability, T/C [32] 35.5% | viability, T/C [33] 39.5% | viability, T/C [34] 44.5% | viability, T/C [35] 36% | viability, T/C [36] 18.6%
> 10 µM: IC50 (second compound 0.0316 µM) | IC50 (second compound 0.1 µM) | IC50 (second compound 0.316 µM) | IC50 (second compound 1 µM)

CCCS(=O)(=O)Nc1ccc(F)c(C(=O)c2c[nH]c3ncc(-c4ccc(Cl)cc4)cc23)c1F + CNC(=O)c1ccc(Nc2nc(OC3CCCC3)c3c(-c4ccc5nc(C)oc5c4)c[nH]c3n2)c(OC)c1
inactive: viability, T/C [1] 87.8% | viability, T/C [2] 94% | viability, T/C [3] 96.5% | viability, T/C [4] 101% | viability, T/C [5] 105% | viability, T/C [6] 66.2% | viability, T/C [7] 102% | viability, T/C [8] 101% | viability, T/C [9] 107% | viability, T/C [10] 108% | viability, T/C [11] 114% | viability, T/C [12] 56.2% | viability, T/C [13] 78.2% | viability, T/C [14] 93.2% | viability, T/C [15] 96% | viability, T/C [16] 118% | viability, T/C [17] 126% | viability, T/C [18] 46% | viability, T/C [19] 64.7% | viability, T/C [20] 80% | viability, T/C [21] 84.1% | viability, T/C [22] 85.7% | viability, T/C [23] 85.8% | viability, T/C [24] 36.9% | viability, T/C [25] 53.1% | viability, T/C [26] 52.6% | viability, T/C [27] 49.6% | viability, T/C [28] 36.1% | viability, T/C [29] 28.1% | viability, T/C [30] 24.7% | viability, T/C [31] 39% | viability, T/C [32] 40.2% | viability, T/C [33] 45.1% | viability, T/C [34] 35.5% | viability, T/C [35] 33.5% | viability, T/C [36] 24.3%
> 10 µM: IC50 (second compound 0.0316 µM) | IC50 (second compound 0.1 µM)
< 0.0316 µM: IC50 (second compound 10 µM)
7.06 µM: IC50 (second compound 1 µM)
0.241 µM: IC50 (second compound 3.16 µM)
9.22 µM: IC50 (second compound 0.316 µM)

COC1C=CCC(C)C(C)S(=O)(=O)NC(=O)c2ccc3c(c2)N(CC2CCC21)CC1(CCCc2cc(Cl)ccc21)CO3 (stereo not drawn) + CNC(=O)c1ccc(Nc2nc(OC3CCCC3)c3c(-c4ccc5nc(C)oc5c4)c[nH]c3n2)c(OC)c1
0.0462 µM: IC50 (second compound 3.16 µM)
active: viability, T/C [30] 8.25% | viability, T/C [36] 9.22%
0.897 µM: IC50 (second compound 0.316 µM)
inactive: viability, T/C [1] 84% | viability, T/C [2] 94.8% | viability, T/C [3] 106% | viability, T/C [4] 81.1% | viability, T/C [5] 88.3% | viability, T/C [6] 20.1% | viability, T/C [7] 78.6% | viability, T/C [8] 88.7% | viability, T/C [9] 77.4% | viability, T/C [10] 64.7% | viability, T/C [11] 59.7% | viability, T/C [12] 17.8% | viability, T/C [13] 94% | viability, T/C [14] 76.3% | viability, T/C [15] 76.6% | viability, T/C [16] 43.2% | viability, T/C [17] 30% | viability, T/C [18] 14.6% | viability, T/C [19] 75% | viability, T/C [20] 58.7% | viability, T/C [21] 45.9% | viability, T/C [22] 28% | viability, T/C [23] 16.7% | viability, T/C [24] 10.8% | viability, T/C [25] 54% | viability, T/C [26] 41.2% | viability, T/C [27] 33% | viability, T/C [28] 17.7% | viability, T/C [29] 9.9% | viability, T/C [31] 38.7% | viability, T/C [32] 34.4% | viability, T/C [33] 25.8% | viability, T/C [34] 14.4% | viability, T/C [35] 9.05%
6.02 µM: IC50 (second compound 0.0316 µM)
0.207 µM: IC50 (second compound 1 µM)
< 0.0316 µM: IC50 (second compound 10 µM)
3.74 µM: IC50 (second compound 0.1 µM)
